Data taken from patent publication US20210369680A1, “METHODS OF TREATING DISEASES AND DISORDERS RESULTING FROM BETA CORONAVIRUS INFECTION” (T3D Therapeutics, Inc., priority 2020, published 2021).

Assay: Fasted plasma metabolomics, clinical study
Assay type: in vivo, human
Method: Plasma Metabolomic Data from Clinical Study with Compound of Example 11
Fasted plasma metabolomics biomarkers were examined seeking evidence of systemic and brain pharmacological effects of Compound from Example 11. Over 800 chemically defined metabolites were examined for each dose group and a ratio EOT/BL) was calculated with an associated p value. Four dose groups were tested, 3, 10 30 and 90 mg. In general, the 30 and 90 mg dose groups had the largest impact on the metabolomics profile, each with 120 metabolites with p<0.05, while the 3 and 10 mg groups had smaller effects (40 and 61 with p<0.05 respectively). The metabolites were split into about 60 families. […] BCAAs are positively correlated with insulin resistance and diabetes. […] Some of these metabolites, such as isovaleryl and isobutyryl carnitine are part of a principal component shown to be positively associated with insulin resistance. The numbers in Table 7 are ratios of the dose group averages end of treatment (EOT) to baseline (BL). A green box indicates a statistically significant (p<0.05) decrease in metabolite. The light green indicates the p value is between 0.05 and 0.1. Statistical comparisons between doses and visits were conducted using Two-Way Repeated Measure ANOVA. Reference is made to Newgard CB, 2017. Metabolomics and Metabolic Disease, Where Do We Stand? Cell Metabolism 25: 43-56, which is incorporated by reference with regard to the example.

CCc1oc(-c2ccc(OC)cc2)nc1CCOc1ccc2c(c1)CC[C@H]2CC(=O)[O-].[Na+] [Example 11, Sodium (S)-2-(5-(2-(5-ethyl-2-(4-methoxyphenyl)oxazol-4-yl)ethoxy)-2,3-dihydro-1H-inden-1-yl)acetate]
isobutyrylcarnitine (C4), ratio EOT/BL (10 mg): 1.01
isoleucine, ratio EOT/BL (10 mg): 0.94
isovalerylcarnitine (C5), ratio EOT/BL (10 mg): 0.97
laurylcarnitine (C12), ratio EOT/BL (10 mg): 1.17
leucine, ratio EOT/BL (10 mg): 0.98
number of metabolites with p<0.05 (10 mg): 61
octanoylcarnitine (C8), ratio EOT/BL (10 mg): 1.21
valine, ratio EOT/BL (10 mg): 1.06
2-methylbutyrylcarnitine (C5), ratio EOT/BL (30 mg): 0.96
3-hydroxybutyrlcarnite, ratio EOT/BL (30 mg): 1.26
Adrenoylcarnitine (C22:4)*, ratio EOT/BL (30 mg): 1.44
Arachidonoylcarnitine (C20:4), ratio EOT/BL (30 mg): 1.34
Arachidoylcarnitine (C20)*, ratio EOT/BL (30 mg): 1.16
Ceramide (d18:2/24:1, d18:1/24:2), ratio EOT/BL (30 mg): 0.92
Dihomo-linoleoylcarnitine (C20:2)*, ratio EOT/BL (30 mg): 1.47
Docosapentaenoylcarnitine (C22:5n3)*, ratio EOT/BL (30 mg): 1.65
Eicosenoylcarnitine (C20:1), ratio EOT/BL (30 mg): 1.43
Linolenoylcarnitine (C18:3)*, ratio EOT/BL (30 mg): 1.35
Linoleoylcarnitine (C18:2)*, ratio EOT/BL (30 mg): 1.37
Margaroylcarnitine*, ratio EOT/BL (30 mg): 1.14
Myristoycarnitine (C14), ratio EOT/BL (30 mg): 1.29
N-acetylleucine, ratio EOT/BL (30 mg): 0.91
N-palmitoyl-sphingosince (d18:1/16:0), ratio EOT/BL (30 mg): 0.89
N-stearoyl-sphinogosince (d18:1/18:0), ratio EOT/BL (30 mg): 0.82
Oleoylcarnitine (C18:1), ratio EOT/BL (30 mg): 1.51
Palmitoleoylcarnitine (C16:1)*, ratio EOT/BL (30 mg): 1.66
Palmitoylcaritine (C16), ratio EOT/BL (30 mg): 1.29
Stearoylcarnitine (C18), ratio EOT/BL (30 mg): 1.24
acetylcarnitine (C2), ratio EOT/BL (30 mg): 1.19
ceramide (d16:1/24:1, d18:1/22:1), ratio EOT/BL (30 mg): 0.71
ceramide (d18:1/14:0, d16:1/16:0), ratio EOT/BL (30 mg): 0.86
ceramide (d18:1/17:0, d17:1/18:0), ratio EOT/BL (30 mg): 0.91
ceramide (d18:1/20:0, d16:1/22:0 d20:1/18:0), ratio EOT/BL (30 mg): 0.83
isobutyrylcarnitine (C4), ratio EOT/BL (30 mg): 0.77
isoleucine, ratio EOT/BL (30 mg): 0.96
isovalerylcarnitine (C5), ratio EOT/BL (30 mg): 0.99
laurylcarnitine (C12), ratio EOT/BL (30 mg): 1.35
leucine, ratio EOT/BL (30 mg): 1
number of metabolites with p<0.05 (30 mg): 120
octanoylcarnitine (C8), ratio EOT/BL (30 mg): 1.44
valine, ratio EOT/BL (30 mg): 0.96
2-methylbutyrylcarnitine (C5), ratio EOT/BL (90 mg): 0.81
3-hydroxybutyrlcarnite, ratio EOT/BL (90 mg): 1.53
Adrenoylcarnitine (C22:4)*, ratio EOT/BL (90 mg): 1.54
Arachidonoylcarnitine (C20:4), ratio EOT/BL (90 mg): 1.31
Arachidoylcarnitine (C20)*, ratio EOT/BL (90 mg): 1.17
Ceramide (d18:2/24:1, d18:1/24:2), ratio EOT/BL (90 mg): 0.99
Dihomo-linoleoylcarnitine (C20:2)*, ratio EOT/BL (90 mg): 1.54
Docosapentaenoylcarnitine (C22:5n3)*, ratio EOT/BL (90 mg): 1.45
Eicosenoylcarnitine (C20:1), ratio EOT/BL (90 mg): 1.61
Linolenoylcarnitine (C18:3)*, ratio EOT/BL (90 mg): 1.25
Linoleoylcarnitine (C18:2)*, ratio EOT/BL (90 mg): 1.22
Margaroylcarnitine*, ratio EOT/BL (90 mg): 1.21
Myristoycarnitine (C14), ratio EOT/BL (90 mg): 1.56
N-acetylleucine, ratio EOT/BL (90 mg): 0.82
N-palmitoyl-sphingosince (d18:1/16:0), ratio EOT/BL (90 mg): 0.89
N-stearoyl-sphinogosince (d18:1/18:0), ratio EOT/BL (90 mg): 0.82
Oleoylcarnitine (C18:1), ratio EOT/BL (90 mg): 1.46
Palmitoleoylcarnitine (C16:1)*, ratio EOT/BL (90 mg): 1.79
Palmitoylcaritine (C16), ratio EOT/BL (90 mg): 1.31
Stearoylcarnitine (C18), ratio EOT/BL (90 mg): 1.18
acetylcarnitine (C2), ratio EOT/BL (90 mg): 1.23
ceramide (d16:1/24:1, d18:1/22:1), ratio EOT/BL (90 mg): 0.84
ceramide (d18:1/14:0, d16:1/16:0), ratio EOT/BL (90 mg): 0.77
ceramide (d18:1/17:0, d17:1/18:0), ratio EOT/BL (90 mg): 0.84
ceramide (d18:1/20:0, d16:1/22:0 d20:1/18:0), ratio EOT/BL (90 mg): 0.84
isobutyrylcarnitine (C4), ratio EOT/BL (90 mg): 0.57
isoleucine, ratio EOT/BL (90 mg): 0.84
isovalerylcarnitine (C5), ratio EOT/BL (90 mg): 0.68
laurylcarnitine (C12), ratio EOT/BL (90 mg): 1.56
leucine, ratio EOT/BL (90 mg): 0.8
number of metabolites with p<0.05 (90 mg): 120
octanoylcarnitine (C8), ratio EOT/BL (90 mg): 1.58
valine, ratio EOT/BL (90 mg): 0.79
